From PMC9743598, “OR2AT4 and OR1A2 counterregulate molecular pathophysiological processes of steroid-resistant inflammatory lung diseases in human alveolar macrophages” (Molecular Medicine, 2022) come the findings set out here.

The target in the experiment is T1, OR2AT4 (Homo sapiens, UniProt A6NND4).
T1 construct: endogenous full-length receptor in primary human alveolar macrophages from bronchoalveolar lavage; estimated 34 kDa, blot signal about 40 kDa
T1 sequence (A6NND4 1-320): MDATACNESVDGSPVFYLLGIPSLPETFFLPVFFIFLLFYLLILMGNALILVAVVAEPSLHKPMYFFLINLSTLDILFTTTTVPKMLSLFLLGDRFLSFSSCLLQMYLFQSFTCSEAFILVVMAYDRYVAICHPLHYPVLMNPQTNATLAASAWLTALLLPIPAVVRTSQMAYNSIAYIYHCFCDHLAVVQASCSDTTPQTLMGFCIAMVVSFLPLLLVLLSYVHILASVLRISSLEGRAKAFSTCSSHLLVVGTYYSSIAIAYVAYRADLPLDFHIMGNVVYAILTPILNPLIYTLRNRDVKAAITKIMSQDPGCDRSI
Nature of the experiment: Fura-2 single-cell calcium imaging, primary human alveolar macrophages. The format is cell-based. The following applies: agonist; endogenous receptor in native cells; Ringer solution.

Molecules are shown by their SMILES.

Consider `CC1=CCC(CCC(C)C(C)O)C1(C)C` (stereo not shown) [Sandalore], for which the EC50 is 190 µM.
